From publication PMC6208908, “Field template-based design and biological evaluation of new sphingosine kinase 1 inhibitors” (Breast Cancer Research and Treatment, 2018) come the findings set out here.

Data set [1] can be described thus: Whole-body toxicity: body and organ weights, full blood count. Type of data set: in vivo, BALB/c nude mice. Particulars: 5 mg/kg each drug i.p. twice a week for 2 weeks, 4T1 tumour-bearing mice. The method, then:
(§1) Breast cancer allografts were established in 6–8-week-old BALB/c nude mice by injection of 10^6 4T1 cells into their mammary pad. Two weeks after implantation, mice were randomised into treatment groups (n = 6/group) and treated twice a week for 2 weeks with intraperitoneal injections of dimethyl sulfoxide (DMSO), 5 mg/kg DTX, 5 mg/kg SK-F, 5 mg/kg DTX + 5 mg/kg SK-F. One day after the last treatment, all mice were euthanized and blood was collected. Tumour long and short radii were measured using calipers and tumour volume (v) was calculated using the formula v = 4/3 πab^2 (a – long radius, b – short radius). Mice and individual organs were weighed and primary tumours were then processed for analysis of SK1 activity as described above. Full blood count and liver function test analysis was done in the Hammersmith hospital biochemical lab.
Tumour-bearing mice were divided into four groups (n = 6) and injected with: DMSO, 5 mg/kg DTX, 5 mg/kg SK-F, 5 mg/kg DTX + 5 mg/kg SK-F. Two weeks after the tumour cells inoculation, we began intraperitoneal injections of drug preparations and continued these twice a week for two weeks. Based on our previous studies, we have chosen relatively smaller doses of SK-F and DTX in order to investigate their combined effect and potential chemosensitisation of breast tumours to taxane therapies. In the control group, tumours grew progressively and rapidly (Fig. 5a). […] Five mg/kg DTX has induced a significant reduction in tumour volume to 281 mm^3. The biggest reduction in tumour volume to 159 mm^3 was observed when DTX was combined with SK-F (Fig. 5a). […] We have further investigated the effects of the used treatments on mouse whole-body toxicity. DTX has reduced body and liver weight, while SK-F had no significant effect (Table 1). DTX has induced significant anaemia and leukopenia, while the effects of SK-F were very moderate. In all cases, the effects of combined therapy were similar to DTX alone (Table 1). Liver function test was performed as a surrogate marker for chemotherapy-induced liver damage (Fig. 6). […] The combination therapy had similar toxicity profile to DTX alone, while exerting higher antitumour efficacy (Fig. 5a).

The subject of another data set is SK1 mRNA. Briefly: SK1 mRNA expression by qRT-PCR in MDA-MB-231 cells. Type of data set: cell-based, human. The conditions noted are these: 1, 2, 5 and 10 µM, 24 h. The method, then: Isolation of total RNA from MDA-MB-231 cells was performed using the RNeasy Mini kit (Qiagen, Valencia, CA, USA) as per manufacturer’s instructions. RNA quantity and purity were measured using a NanoDrop ND-1000 Spectrophotometer (Thermo Fisher Scientific, Loughborough, UK). Reverse transcription was performed using precision nanoScript™ reverse transcription kit (PrimerDesign Ltd, Southampton, UK). qRT-PCR was done as already described. Ct values were exported and analysed using qbase software (Biogazelle NV, Zwijnaarde, Belgium).
Fig. 3 Effect of compounds SK-A to SK-F on SK1 mRNA levels. MDA-MB-231 cells were incubated with 1, 2, 5 and 10 µM of compounds SK-A to SK-F for 24 h. SK1 mRNA expression was measured by qRT-PCR. Columns, means of three independent experiments normalised to control; bars, SEM. (*p < 0.05; **p < 0.01)
In general terms: Real-time PCR tracks product formation cycle by cycle.

The subject of data set [2] is 4T1 breast cancer allografts. In words: 4T1 breast cancer allograft, tumour volume. Type of data set: in vivo, BALB/c nude mice. The conditions noted are these: 5 mg/kg each drug i.p. twice a week for 2 weeks; control 468 mm^3. The method, then:
as §1, with “lab. […]” for “lab.”
(§2) Fig. 5 Effect of compound SK-F on breast tumour growth and SK1 activity. […] Two weeks after implantation, mice were randomised into treatment groups (n = 6/group) and treated twice a week for 2 weeks with intraperitoneal injections of: DMSO, 5 mg/kg DTX, 5 mg/kg SK-F, 5 mg/kg DTX + 5 mg/kg SK-F. a Tumour volume in the different treatment groups of 4T1 breast cancer implanted in mouse mammary fat pad. b SK1 activity in tumours was measured using radiolabelling. […]

Data set [3] in a line: Liver function tests in treated mice. Type of data set: in vivo, BALB/c nude mice. The conditions noted are these: 5 mg/kg each drug i.p. twice a week for 2 weeks, compared with DTX. The procedure:
as §1
Fig. 6 Liver function tests of mice treated with SK-F and docetaxel (DTX). Breast cancer allografts were established in BALB/c nude mice by injection of 4T1 cells into their mammary pad. Two weeks after implantation, mice were randomised into treatment groups (n = 6/group) and treated twice a week for two weeks with intraperitoneal injections of: DMSO, 5 mg/kg DTX, 5 mg/kg SK-F, 5 mg/kg DTX + 5 mg/kg SK-F. a Alanine transaminases (ALT). b Bilirubin. c Aspartate transaminase (AST). d Albumin. e Alkaline phosphatase (ALP). f Total protein. Columns, mean of n = 6 animals normalised to control; bars, SEM. (*p < 0.05; **p < 0.01)

The target of a further data set is T1, tumour SK1 (Mus musculus, UniProt Q8CI15).
T1 construct: primary tumours were then processed for analysis of SK1 activity as described above; from tissue; host or cells: 4T1 breast tumour allografts from BALB/c nude mice
In words: SK1 activity in 4T1 allograft tumours. The class given is in vivo, BALB/c nude mice. The conditions noted are these: 5 mg/kg each drug i.p. twice a week for 2 weeks. The method, then:
as §1, §2

The subject of another data set is SK1 protein. In words: SK1 protein level (Figure S9). Type of data set: cell-based.

Marks after values point to notes of the source that are not given here.

T1 sequence (Q8CI15 whole entry): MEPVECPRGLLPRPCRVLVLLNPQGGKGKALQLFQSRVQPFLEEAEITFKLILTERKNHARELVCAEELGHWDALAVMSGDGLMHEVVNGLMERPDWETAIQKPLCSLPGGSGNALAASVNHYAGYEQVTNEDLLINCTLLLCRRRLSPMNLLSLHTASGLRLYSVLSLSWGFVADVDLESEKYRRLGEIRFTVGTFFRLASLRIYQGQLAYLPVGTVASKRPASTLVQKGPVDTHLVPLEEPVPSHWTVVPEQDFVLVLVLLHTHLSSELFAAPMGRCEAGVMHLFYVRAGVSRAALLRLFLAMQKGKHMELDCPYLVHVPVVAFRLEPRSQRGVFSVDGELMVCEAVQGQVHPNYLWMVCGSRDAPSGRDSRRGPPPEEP

`CCCCCCCCc1ccc(NC(=O)c2ccccc2)cc1` [SK-F]: in data set [1], the Hb was 90 ± 8^a % of control ± SEM, the WCC was 78 ± 7 % of control ± SEM, the “Weight of Body” value was 91 ± 6^ns % of control ± SEM and the “Weight of Kidney” value was 118.2 ± 3.6 % of control ± SEM. In data set [1], the “Weight of Liver” value is recorded as 106.7 ± 5.5^a % of control ± SEM, the “Weight of Lungs” value was 117.7 ± 5.6 % of control ± SEM and the “Weight of Spleen” value is listed as 111.2 ± 13.4^a % of control ± SEM. Besides, the “effect on SK1 mRNA expression” value in the data set on SK1 mRNA is reported as “did not elicit any changes”. Also, the “tumour volume at the end of the study” value in data set [2] was determined as 371 mm^3. Also, the “liver function test toxicity profile” value in data set [3] is reported as “milder toxicity profile”. Besides, on tumour SK1, the “tumour SK1 activity” value is on record as “significantly reduced”. Moreover, the “effect on SK1 protein” value in the data set on SK1 protein is given as “did not induce any change”.
